Data as given in patent US20210138012A1, “COMPOSITION FOR PREVENTING, AMELIORATING, OR TREATING RESPIRATORY DISEASE COMPRISING SIRAITIA GROSVENORII EXTRACT AS EFFECTIVE COMPONENT” (KOREA INSTITUTE OF ORIENTAL MEDICINE, priority 2018, published 2021).

Experiments:
IL-4 = IL-4 production in BALF (ELISA), animal asthma model; assay type: in vivo, Balb/c mouse; conditions: OVA-10 mg/kg
Description: (§1) Test was carried out by using an animal model which has been induced to have bronchial asthma by ovalbumin (OVA). As for the test animal, a 7-week old male Balb/c mouse was obtained from Jackson Laboratory (Bar Harbor, Me., USA), and used for the test after acclimation for 1 week. […] On day 3 and day 10 after intraperitoneally administering the first OVA, 2 mg of OVA were administered to the mouse via intratracheal injection. Then, from day 21 onwards for 4 weeks, the mouse was allowed to inhale OVA for 30 minutes by using a ultrasonic sprayer (NE-U12, Omron Co., Tokyo, Japan) (week 1 to week 3; exposed to 1% OVA, week 4; exposed to 2% OVA). Forty-eight hours after the last exposure to OVA, blood was taken from the anesthetized mouse, which was then subjected to autopsy to have observation of a pathological change. […]
(§2) Production amount of interleukins (IL-4, IL-5, and IL-13) in BALF separated from each test animal was measured by a commercially available kit for enzyme-linked immunosorbent assay (ELISA) (R&D System, USA). Analysis of each cytokine was carried out according to the experimental method provided by the manufacturer, and the absorbance at 450 nm was measured using an ELISA reader.

IL-13 = IL-13 production in BALF (ELISA), animal asthma model; assay type: in vivo, Balb/c mouse; conditions: OVA-10 mg/kg
Description: as §1, §2

IL-5 = IL-5 production in BALF (ELISA), animal asthma model; assay type: in vivo, Balb/c mouse; conditions: OVA-10 mg/kg
Description: as §1, §2

TARC = test: Inhibition of TARC secretion in TNF-α + IFN-γ + IL-4-treated BEAS-2B cells (ELISA); assay type: cell-based; conditions: Homo sapiens, TNF-α + IFN-γ + IL-4, 24 hours, read-out: Inhibition rate (%) of TARC secretion
Description: (§3) BEAS-2B cells (ATCC, USA), which are human bronchial epithelial cells, were cultured in Dulbecco's modified eagle medium (DMEM) added with fetal bovine serum (FBS) and penicillin-streptomycin (PS). BEAS-2B cells were cultured again for 18 hours in a 96-well plate (5×10^4 cells/well) containing DMEM 10% medium. The medium was subsequently removed and replaced with serum-free DMEM.
Meanwhile, to measure the secretion amount of TARC, BEAS-2B cells were simultaneously treated with TNF-α (50 ng/ml), IFN-γ (10 ng/ml), and IL-4 (50 ng/ml), and, after culture for 24 hours, the measurement was made by using ELISA kit (R&D systems, USA).

RANTES = test: Inhibition of RANTES secretion in TNF-α-treated BEAS-2B cells (ELISA); assay type: cell-based; conditions: Homo sapiens, 10 ng/ml TNF-α, 24 hours, read-out: Inhibition rate (%) of RANTES secretion
Description: as §3
After that, to measure the secretion amount of RANTES, the cells were simultaneously treated with a test sample and TNF-α (10 ng/ml) and cultured for 24 hours. Secretion amount of RANTES present in cell supernatant was measured by using ELISA kit (R&D systems, USA) according to the manufacturer's protocol. As a positive control group, 0.1 μM dexamethasone was used.

[1] = tested on: BEAS-2B pulmonary bronchial cells; test: Cytotoxicity in BEAS-2B pulmonary bronchial cells using CCK-8; assay type: cell-based, human; conditions: 0.1 μM
Description: as §3

| SMILES | IL-4 (IL-4) [pg/mL] | IL-13 (IL-13) [pg/mL] | IL-5 (IL-5) [pg/mL] | inhibition at 0.1 µM (TARC) [%] | inhibition at 0.1 µM (RANTES) [%] | Cell viability (%) [1] [%] |
| --- | --- | --- | --- | --- | --- | --- |
| CC(C)(O)c1ccccc1CC[C@@H](SCC1(CC(=O)O)CC1)c1cccc(/C=C/c2ccc3ccc(Cl)cc3n2)c1 [Montelukast, montelukast] | 60.37 ± 12.05 | 89.58 ± 9.46 | 27.91 ± 8.61 |  |  |  |
| C[C@@H]1C[C@H]2[C@@H]3CCC4=CC(=O)C=C[C@]4(C)[C@@]3(F)[C@@H](O)C[C@]2(C)[C@@]1(O)C(=O)CO [positive control group, dexamethasone] |  |  |  | 28.4 ± 8.77 | 97.1 ± 12.9 | 99.34 ± 0.14 |
